pIC50: −log10 of the molar value.
Target: PI3-kinase p110-alpha/p85-alpha (Homo sapiens, UniProt P42336)
Test: Inhibition of PI3 kinase p110alpha/p85-alpha complex
Format: protein-complex assay

Chain of PI3-kinase p110-alpha/p85-alpha (P27986 whole entry): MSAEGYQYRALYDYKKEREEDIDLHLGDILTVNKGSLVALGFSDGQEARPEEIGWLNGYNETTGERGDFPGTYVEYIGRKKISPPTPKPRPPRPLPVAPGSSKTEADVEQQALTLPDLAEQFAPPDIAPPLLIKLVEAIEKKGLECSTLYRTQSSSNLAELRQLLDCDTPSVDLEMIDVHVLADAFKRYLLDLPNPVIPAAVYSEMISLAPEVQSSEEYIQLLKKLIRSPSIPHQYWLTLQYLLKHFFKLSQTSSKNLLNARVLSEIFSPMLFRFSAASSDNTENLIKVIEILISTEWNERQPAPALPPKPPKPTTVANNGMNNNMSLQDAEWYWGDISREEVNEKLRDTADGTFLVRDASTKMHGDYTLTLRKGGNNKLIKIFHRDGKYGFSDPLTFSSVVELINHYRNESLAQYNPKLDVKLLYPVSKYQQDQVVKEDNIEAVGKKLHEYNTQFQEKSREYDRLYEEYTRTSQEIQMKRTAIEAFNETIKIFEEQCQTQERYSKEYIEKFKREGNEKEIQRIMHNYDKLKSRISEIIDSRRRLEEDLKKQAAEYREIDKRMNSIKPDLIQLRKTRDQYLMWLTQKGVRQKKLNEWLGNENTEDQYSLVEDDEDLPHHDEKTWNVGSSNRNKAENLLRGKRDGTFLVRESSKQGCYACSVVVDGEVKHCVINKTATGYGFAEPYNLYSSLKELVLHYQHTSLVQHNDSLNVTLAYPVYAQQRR
Chain of PI3-kinase p110-alpha/p85-alpha (P42336 whole entry): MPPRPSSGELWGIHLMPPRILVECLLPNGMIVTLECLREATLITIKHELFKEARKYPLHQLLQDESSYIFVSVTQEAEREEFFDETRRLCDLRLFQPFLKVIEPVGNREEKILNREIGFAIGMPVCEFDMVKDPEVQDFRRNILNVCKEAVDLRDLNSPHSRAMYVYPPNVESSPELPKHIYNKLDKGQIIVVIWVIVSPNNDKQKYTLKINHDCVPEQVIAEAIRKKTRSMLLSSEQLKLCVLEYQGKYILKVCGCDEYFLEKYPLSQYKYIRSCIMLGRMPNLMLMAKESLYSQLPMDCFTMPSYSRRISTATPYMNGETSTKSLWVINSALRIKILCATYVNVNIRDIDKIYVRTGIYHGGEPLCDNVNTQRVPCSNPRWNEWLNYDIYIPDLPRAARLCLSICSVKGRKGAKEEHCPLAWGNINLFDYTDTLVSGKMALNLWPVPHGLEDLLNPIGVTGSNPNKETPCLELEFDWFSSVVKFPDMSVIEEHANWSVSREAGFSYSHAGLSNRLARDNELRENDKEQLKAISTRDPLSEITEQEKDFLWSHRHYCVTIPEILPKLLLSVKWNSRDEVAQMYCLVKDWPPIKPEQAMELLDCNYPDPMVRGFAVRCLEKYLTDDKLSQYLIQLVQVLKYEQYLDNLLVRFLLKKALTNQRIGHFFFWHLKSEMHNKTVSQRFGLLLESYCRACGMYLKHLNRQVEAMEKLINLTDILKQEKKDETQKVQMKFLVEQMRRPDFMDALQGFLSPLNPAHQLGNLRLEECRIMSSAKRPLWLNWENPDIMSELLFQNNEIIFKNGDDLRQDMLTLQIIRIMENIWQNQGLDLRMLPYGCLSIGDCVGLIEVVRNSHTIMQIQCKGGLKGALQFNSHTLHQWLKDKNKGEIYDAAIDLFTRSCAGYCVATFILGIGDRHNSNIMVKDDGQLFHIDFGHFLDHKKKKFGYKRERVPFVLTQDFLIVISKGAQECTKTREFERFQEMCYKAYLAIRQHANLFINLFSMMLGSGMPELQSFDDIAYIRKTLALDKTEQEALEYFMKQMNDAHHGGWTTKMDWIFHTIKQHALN

| SMILES | pIC50 |
| --- | --- |
| COC[C@H]1OC(=O)c2coc3c2[C@@]1(C)C1=C(C3=O)C2CC[C@H](OC(=O)Cc3cc(=O)oc4cc(N(C)C)ccc34)[C@@]2(C)C[C@H]1OC(C)=O (stereo partly specified) | 6.16 |
| CN(CC(=O)O[C@@H]1CC(=O)c2coc3c2[C@@]1(C)c1ccc2c(c1C3=O)CCC2=O)c1ccc([N+](=O)[O-])c2nonc12 | 8.02 |
| CN(C)c1ccc2c(CC(=O)O[C@@H]3CC(=O)c4coc5c4[C@@]3(C)c3ccc4c(c3C5=O)CCC4=O)cc(=O)oc2c1 | 8.72 |
| COC[C@H]1OC(=O)c2coc3c2[C@@]1(C)C1=C(C3=O)C2CCC(=O)[C@@]2(C)C[C@H]1OC(=O)Cc1cc(=O)oc2cc(N(C)C)ccc12 (stereo partly specified) | 8.00 |
| COC[C@H]1OC(=O)c2coc3c2[C@@]1(C)C1=C(C3=O)C2CC[C@H](OC(=O)CN(C)c3ccc([N+](=O)[O-])c4nonc34)[C@@]2(C)C[C@H]1OC(C)=O (stereo partly specified) | 6.65 |
| COC[C@H]1OC(=O)c2coc3c2[C@@]1(C)C1=C(C3=O)C2CCC(=O)[C@@]2(C)C[C@H]1OC(=O)CN(C)c1ccc([N+](=O)[O-])c2nonc12 (stereo partly specified) | 9.15 |

— ChEMBL document CHEMBL1146989 (Bioorg Med Chem Lett, 2006)
